From ChEMBL document CHEMBL4257573, “Synthesis, modification, and cytotoxic evaluation of 2,3-secotriterpenic β-ketoesters” (Bioorg Med Chem Lett, 2018)
Activity calls are given as the source filed them. No cut-off for these calls is given here.

Experiments:
HCT-116 [1] = experiment: Induction of apoptosis in human HCT116 cells assessed as viable cells at 3 uM after 18 hrs by Annexin V/7-AAD staining based flow cytometric analysis (reference value: 91.42%); assay type: functional; conditions: HCT-116, 18 h, read-out: Activity
HCT-116 [2] = experiment: Cell cycle arrest in human HCT116 cells assessed as decrease in accumulation at G0/G1 phase after 18 hrs by DAPI staining-based flow cytometric analysis; assay type: functional
HCT-116 [3] = experiment: Antimigratory activity in human HCT116 cells after 96 hrs by wound healing assay; assay type: functional, cell-based
HCT-116 [4] = experiment: Cell cycle arrest in human HCT116 cells assessed as accumulation at G2/M phase at 6 uM after 18 hrs by DAPI staining-based flow cytometric analysis (RVB = 17.25%); assay type: functional
MCF7 = experiment: Cytotoxicity against human MCF7 cells assessed as reduction in cell viability after 72 hrs by MTT assay; assay type: functional, cell-based; conditions: MCF7, 72 h
HCT-116 [5] = experiment: Induction of apoptosis in human HCT116 cells assessed as necrotic cells at 3 uM after 18 hrs by Annexin V/7-AAD staining based flow cytometric analysis (reference value: 0.62%); assay type: functional
HCT-116 [6] = experiment: Induction of apoptosis in human HCT116 cells assessed as late apoptotic cells at 3 uM after 18 hrs by Annexin V/7-AAD staining based flow cytometric analysis (reference value: 2.12%); assay type: functional
HCT-116 [7] = experiment: Induction of apoptosis in human HCT116 cells assessed as decrease in viable cells after 18 hrs by Annexin V/7-AAD staining based flow cytometric analysis; assay type: functional, cell-based
HCT-116 [8] = experiment: Cell cycle arrest in human HCT116 cells assessed as accumulation at G0/G1 phase at 6 uM after 18 hrs by DAPI staining-based flow cytometric analysis (RVB = 47.72%); assay type: functional
[9] = Cytotoxicity against human MS cells assessed as reduction in cell viability after 72 hrs by MTT assay; assay type: functional, cell-based
HCT-116 [10] = experiment: Induction of apoptosis in human HCT116 cells assessed as late apoptotic cells at 6 uM after 18 hrs by Annexin V/7-AAD staining based flow cytometric analysis (reference value: 2.12%); assay type: functional
HCT-116 [11] = experiment: Cell cycle arrest in human HCT116 cells assessed as accumulation at sub-G0 phase at 6 uM after 18 hrs by DAPI staining-based flow cytometric analysis (RVB = 8.55%); assay type: functional
[12] = Selectivity index, ratio of IC50 for HEK293 cells to IC50 for human Hep2 cells; assay type: toxicity; conditions: HEK293 cells versus Hep2 cells, read-out: Ratio IC50
HCT-116 [13] = experiment: Induction of apoptosis in human HCT116 cells assessed as viable cells at 6 uM after 18 hrs by Annexin V/7-AAD staining based flow cytometric analysis (reference value: 91.42%); assay type: functional; conditions: HCT-116, 18 h, read-out: Activity
HCT-116 [14] = experiment: Induction of apoptosis in human HCT116 cells assessed as increase in early apoptotic cells after 18 hrs by Annexin V/7-AAD staining based flow cytometric analysis; assay type: functional, cell-based
HCT-116 [15] = experiment: Cell cycle arrest in human HCT116 cells assessed as accumulation at sub-G0 phase at 3 uM after 18 hrs by DAPI staining-based flow cytometric analysis (RVB = 8.55%); assay type: functional
HCT-116 [16] = experiment: Cytotoxicity against human HCT116 cells assessed as reduction in cell viability after 72 hrs by MTT assay; assay type: functional, cell-based; conditions: for IC50: HCT-116, 72 h
HCT-116 [17] = experiment: Cell cycle arrest in human HCT116 cells assessed as accumulation at S phase at 6 uM after 18 hrs by DAPI staining-based flow cytometric analysis (RVB = 25.49%); assay type: functional
HCT-116 [18] = experiment: Induction of apoptosis in human HCT116 cells assessed as necrotic cells at 6 uM after 18 hrs by Annexin V/7-AAD staining based flow cytometric analysis (reference value: 0.62%); assay type: functional
HCT-116 [19] = experiment: Cell cycle arrest in human HCT116 cells assessed as accumulation at G2/M phase at 3 uM after 18 hrs by DAPI staining-based flow cytometric analysis (RVB = 17.25%); assay type: functional
A549 = experiment: Cytotoxicity against human A549 cells assessed as reduction in cell viability after 72 hrs by MTT assay; assay type: functional, cell-based; conditions: A549, 72 h
[20] = Selectivity index, ratio of IC50 for HEK293 cells to IC50 for human MCF7 cells; assay type: toxicity; conditions: HEK293 cells versus MCF7 cells, read-out: Ratio IC50
HEp-2 = experiment: Cytotoxicity against human Hep2 cells assessed as reduction in cell viability after 72 hrs by MTT assay; assay type: functional, cell-based; conditions: HEp-2, 72 h
HCT-116 [21] = experiment: Cell cycle arrest in human HCT116 cells assessed as accumulation at G0/G1 phase at 3 uM after 18 hrs by DAPI staining-based flow cytometric analysis (RVB = 47.72%); assay type: functional
HCT-116 [22] = experiment: Induction of mitochondrial membrane depolarization in human HCT116 cells at 3 uM after 18 hrs by Hoechst 33258 /rhodamine 123 staining based fluorescence inverted microscopic analysis; assay type: functional, cell-based
HCT-116 [23] = experiment: Cytotoxicity against human HCT116 cells assessed as reduction in cell viability at 3 to 6 uM by MTT assay; assay type: functional, cell-based; conditions: TDE = time-dependent effect
[24] = Selectivity index, ratio of IC50 for HEK293 cells to IC50 for human MS cells; assay type: toxicity; conditions: HEK293 cells versus MS cells, read-out: Ratio IC50
HCT-116 [25] = experiment: Induction of apoptosis in human HCT116 cells assessed as early apoptotic cells at 6 uM after 18 hrs by Annexin V/7-AAD staining based flow cytometric analysis (reference value: 5.84%); assay type: functional
HCT-116 [26] = experiment: Induction of apoptosis in human HCT116 cells assessed as increase in number of cells with condense nucleus at 3 uM after 18 hrs by Hoechst 33258 /rhodamine 123 staining based fluorescence inverted microscopic analysis; assay type: functional, cell-based
HCT-116 [27] = experiment: Cell cycle arrest in human HCT116 cells assessed as accumulation at S phase at 3 uM after 18 hrs by DAPI staining-based flow cytometric analysis (RVB = 25.49%); assay type: functional
HCT-116 [28] = experiment: Induction of apoptosis in human HCT116 cells assessed as early apoptotic cells at 3 uM after 18 hrs by Annexin V/7-AAD staining based flow cytometric analysis (reference value: 5.84%); assay type: functional
RD = experiment: Cytotoxicity against human RD cells assessed as reduction in cell viability after 72 hrs by MTT assay; assay type: functional, cell-based
HEK293 = experiment: Cytotoxicity against HEK293 cells assessed as reduction in cell viability after 72 hrs by MTT assay; assay type: cell-based; conditions: Homo sapiens, HEK293, 72 h
HCT-116 [29] = experiment: Cell cycle arrest in human HCT116 cells assessed as accumulation at G0/G1 phase at 2 uM after 18 hrs by DAPI staining-based flow cytometric analysis (RVB = 47.72%); assay type: functional
HCT-116 [30] = experiment: Cytotoxicity against human HCT116 cells assessed as reduction in cell viability at 2 uM by MTT assay; assay type: functional, cell-based; conditions: TDE = time-dependent effect
HCT-116 [31] = experiment: Cell cycle arrest in human HCT116 cells assessed as accumulation at G2/M phase at 2 uM after 18 hrs by DAPI staining-based flow cytometric analysis (RVB = 17.25%); assay type: functional
HCT-116 [32] = experiment: Cell cycle arrest in human HCT116 cells assessed as accumulation at S phase at 2 uM after 18 hrs by DAPI staining-based flow cytometric analysis (RVB = 25.49%); assay type: functional
HCT-116 [33] = experiment: Induction of apoptosis in human HCT116 cells assessed as viable cells at 2 uM after 18 hrs by Annexin V/7-AAD staining based flow cytometric analysis (reference value: 91.42%); assay type: functional; conditions: HCT-116, 18 h, read-out: Activity
HCT-116 [34] = experiment: Induction of apoptosis in human HCT116 cells assessed as late apoptotic cells at 2 uM after 18 hrs by Annexin V/7-AAD staining based flow cytometric analysis (reference value: 2.12%); assay type: functional
HCT-116 [35] = experiment: Induction of apoptosis in human HCT116 cells assessed as necrotic cells at 2 uM after 18 hrs by Annexin V/7-AAD staining based flow cytometric analysis (reference value: 0.62%); assay type: functional
HCT-116 [36] = experiment: Induction of apoptosis in human HCT116 cells assessed as early apoptotic cells at 2 uM after 18 hrs by Annexin V/7-AAD staining based flow cytometric analysis (reference value: 5.84%); assay type: functional
HCT-116 [37] = experiment: Antimigratory activity in human HCT116 cells at 2 uM after 96 hrs by wound healing assay; assay type: functional, cell-based
HCT-116 [38] = experiment: Cell cycle arrest in human HCT116 cells assessed as accumulation at sub-G0 phase at 2 uM after 18 hrs by DAPI staining-based flow cytometric analysis (RVB = 8.55%); assay type: functional

C=C(C=O)[C@@H]1CC[C@]2(C(=O)OC)CC[C@]3(C)[C@H](CC[C@@H]4[C@@](C)(CC#N)[C@H](C(C)(C)C(=O)COC(C)=O)CC[C@]43C)[C@@H]12
viability at 3 µM (HCT-116 [1]): 71.3%
Activity (HCT-116 [2]): Dose-dependent effect
Activity (HCT-116 [3]): Dose-dependent effect
Activity (HCT-116 [4]): 15.27%
IC50 (MCF7): 9.68 µM
Activity (HCT-116 [5]): 2.6%
Activity (HCT-116 [6]): 11.99%
Activity (HCT-116 [7]): Dose-dependent effect
Activity (HCT-116 [8]): 21.49%
IC50 [9]: 3.61 µM
Activity (HCT-116 [10]): 11.2%
Activity (HCT-116 [11]): 38.29%
selectivity ratio [12]: 2.42 to 9.61
viability at 6 µM (HCT-116 [13]): 58.5%
Activity (HCT-116 [14]): Dose-dependent effect
Activity (HCT-116 [15]): 15.07%
Activity (HCT-116 [16]): Dose-dependent effect
IC50 (HCT-116 [16]): 3.07 µM
Activity (HCT-116 [17]): 24.03%
Activity (HCT-116 [18]): 3.21%
Activity (HCT-116 [19]): 19.99%
IC50 (A549): 10.2 µM
selectivity ratio [20]: 2.42 to 9.61
IC50 (HEp-2): 12.2 µM
Activity (HCT-116 [21]): 35.65%
Activity (HCT-116 [22]): Active
Activity (HCT-116 [23]): Tde
selectivity ratio [24]: 2.42 to 9.61
Activity (HCT-116 [25]): 27.07%
Activity (HCT-116 [26]): Active
Activity (HCT-116 [27]): 28.16%
Activity (HCT-116 [28]): 14.06%
IC50 (RD): 3.5 µM
IC50 (HEK293): 29.5 µM

CC[C@@]1(O)C(=O)OCc2c1cc1n(c2=O)Cc2cc3ccccc3nc2-1 [CAMPTOTHECIN]
IC50 (MCF7): 0.04 µM
Activity (HCT-116 [29]): 27.71%
IC50 [9]: 0.77 µM
selectivity ratio [12]: 0.53 to 40.2
Activity (HCT-116 [30]): Tde
Activity (HCT-116 [31]): 10.06%
Activity (HCT-116 [16]): Dose-dependent effect
Activity (HCT-116 [32]): 36.77%
viability at 2 µM (HCT-116 [33]): 81.9%
IC50 (A549): 1.31 µM
Activity (HCT-116 [34]): 7.33%
selectivity ratio [20]: 0.53 to 40.2
selectivity ratio [24]: 0.53 to 40.2
Activity (HCT-116 [35]): 5.08%
Activity (HCT-116 [36]): 5.73%
Activity (HCT-116 [37]): Active
IC50 (RD): 1.72 µM
Activity (HCT-116 [38]): 24.52%
IC50 (HEK293): 1.61 µM

C=C(C=O)[C@@H]1CC[C@]2(C(=O)OC)CC[C@]3(C)[C@H](CC[C@@H]4[C@@](C)(CC#N)[C@H](C(C)(C)C(=O)COC(=O)/C=C/c5ccccc5)CC[C@]43C)[C@@H]12
IC50 (MCF7): 8.54 µM
IC50 [9]: 22 µM
selectivity ratio [12]: 1.84 to 50.3
IC50 (HCT-116 [16]): 13.2 µM
IC50 (A549): > 100 µM
selectivity ratio [20]: 1.84 to 50.3
IC50 (HEp-2): 84.8 µM
selectivity ratio [24]: 1.84 to 50.3
IC50 (RD): 3.65 µM
IC50 (HEK293): 184 µM

COc1cccc2c1C(=O)c1c(O)c3c(c(O)c1C2=O)C[C@@](O)(C(=O)CO)C[C@@H]3O[C@H]1C[C@H](N)[C@H](O)[C@H](C)O1 [DOXORUBICIN]
IC50 [9]: 1.29 µM
Activity (HCT-116 [30]): Tde
Activity (HCT-116 [16]): Dose-dependent effect
IC50 (HEp-2): 1.78 µM
IC50 (RD): 1.27 µM
IC50 (HEK293): 0.02 µM
